Read-outs that look alike come from different tables or passages of the source.
How the values were obtained:
[1] = test system: normal (control) and cancer cell lines; test: MTT cytotoxicity assay, summary statements over the tested cell lines; format: cell-based, human; conditions: data not shown
HTB140 cells [2] = test: Nuclei roundness by image analysis, HTB140; format: cell-based, human; conditions: 0.0625 mg mL^–1; for nuclei circularity index: HTB140, after the first 24 h
Method: (§1) Cellular studies 12-well plates were used, cell density 3 × 10^5 per well. After 24 h and 48 h of incubation with tested compounds (0.0625 mg mL^–1), the samples were fixed according to standard protocol. Tubulin (green; AlexaFluor-488 mouse anti-β-tubulin IgG; BD Biosciences, San Jose, CA, USA, Pharminogen; cat. 558605), vimentin (infra-red; I: rabbit-anti-vimentin IgG; GeneTex, Irvine, CA, USA; GTX100619; II: chicken-anti-rabbit-AlexaFluor647 IgG; ThermoFisher, Waltham, MA, USA) and counterstained nuclei (blue; Hoechst 33258; Sigma-Aldrich, Darmstadt, Germany) and F-actin (red; AlexaFluor546-phalloidin; ThermoFisher, Waltham, MA, USA). Next, the samples were washed 5 times with deionized water and prepared for imaging with Fluorescent Mounting Medium (Dako Omnis, Agilent, Santa Clara, CA, USA). Microscopic measurements and observations were carried out with the use of fluorescent techniques performed on Zeiss Axio Observer Z.1 microscope with LSM 710 module (Carl Zeiss Microscopy GmbH Carl-Zeiss-Promenade 10, 07745 Jena, Germany). Image acquisition, processing, deconvolution and analysis were performed using Zeiss ZEN Black software ver. 8.1.0.484 and FluoRender 2.21.0. An oil immersion 40×/NA:1.4 lens was used for observations. Parameters used for acquisition of cell morphology were: nucleus—blue channel (405 nm); microtubular network—green channel (488 nm); Actin—red channel (546 nm); vimentin—far red channel (647 nm).

[3] = test system: HaCAT human skin keratynocytes
Method: (§3) The following cell lines were used: human prostate cancer cells from metastases to the brain DU145 (ATCC® HTB-81™, Manassas, Virginia); healthy human prostate epithelial cell line as a control (PNT2; Sigma-Aldrich, Darmstadt, Germany); human melanoma Hs 294T (ATCC® HTB-140™, Manassas, Virginia); human epidermal keratinocytes (HaCaT) HEK001 (ATCC® CRL-2404™, Manassas, Virginia); and normal human skin fibroblasts BJ (ATCC® CRL2522™) as controls. The cells were cultured in 37 °C with humidified atmosphere enriched with 5% CO2 in appropriate cell culture media: DMEM F12Ham (Sigma-Aldrich, Darmstadt, Germany) + 5% FBS (Thermo Fisher Scientific; Gibco; Waltham, MA, USA); RPMI-1640 (Sigma-Aldrich, Darmstadt, Germany) + 10% FBS (Thermo Fisher Scientific; Gibco; Waltham, MA, USA); DMEM high glucose (Sigma-Aldrich) + 10% FBS (Thermo Fisher Scientific; Gibco; Waltham, MA, USA); DMEM low glucose (Sigma-Aldrich, Darmstadt, Germany) + 10% FBS (Thermo Fisher Scientific; Gibco; Waltham, MA, USA). All media contained a penicillin/streptomycin (Sigma-Aldrich, Darmstadt, Germany) cocktail.
(§4) For the determination of the cytotoxic effect of tested compounds, normal (control) and cancer cell lines cells were tested at a concentration of 2.5 × 10^4 cells cm^–^2 in appropriate culture medium into 96 well microplates (VWR, Radnor, PA, USA). Cells were preincubated with four different concentrations of tested compounds: 0.5, 0.25, 0.125 and 0.0625 mg mL^–1 for 24 h, 72 h and 120 h in cell incubator. After the incubation, MTT labelling reagent (final concentration 0.5 mg mL^–1) and solubilizing solution were added according to the protocol. The samples absorbance was measured using a microplate reader (Multiscan FC; Thermo Fisher Scientific, Waltham, MA, USA) by 570 nm wavelength, 620 nm for reference.

[4] = test system: HSF human skin fibroblasts
Method: as §3, §4

[5] = test system: DU145 prostate cancer cells; test: MTT cytotoxicity assay, DU145
Method: as §3, §4

[6] = test system: HTB140 human skin melanoma cells; test: MTT cytotoxicity assay, HTB140
Method: as §3, §4

[7] = test system: HSF human skin fibroblasts; test: MTT cytotoxicity assay, HSF (control); conditions: 72 h
Method: as §3, §4

[8] = test system: PNT2 prostate epithelium cells; test: MTT cytotoxicity assay, PNT2 (control)
Method: as §3, §4

[9] = test system: HaCAT human skin keratynocytes; test: MTT cytotoxicity assay, HaCAT (control); conditions: 72 h
Method: as §3, §4

DU145 cells [10] = test: Nuclei roundness by image analysis, DU145; format: cell-based, human; conditions: DU145, after 48 h, 0.0625 mg mL^–1
Method: as §1, with “Parameters used for acquisition of cell morphology were: nucleus—blue channel (405 nm); microtubular network—green channel (488 nm); Actin—red channel (546 nm); vimentin—far red channel (647 nm).” left out

DU145 cells [11] = test: Transmigration assay (Boyden's chamber), DU145; format: cell-based, human; conditions: DU145, 96 h, 0.0625 mg mL^–1, transmigration/proliferation ratio relative to sugar control
Method: (§2) Transmigration assay was performed using 24-well glass-bottom plate (Eppendorf) containing microporous membranes in Boyden’s chamber (Corning; pore diameter: 8 μm; membrane diameter: 6.5 mm). Native DU145 and HTB140 cells were seeded at density of 3 × 10^5 cells per membrane with tested compounds (0.0625 mg mL^–1) and left for 48 and 96 h for transmigration. The transmigrating cells were fixed with 3.7% formaldehyde and counted. The result is presented as a reference to the rate of cell proliferation in the corresponding compound.

HTB140 cells [12] = test: Transmigration assay (Boyden's chamber), HTB140; format: cell-based, human; conditions: HTB140, 96 h, 0.0625 mg mL^–1, relative to sugar control
Method: as §2

[13] = test system: Jurkat (Human T-cell leukemia); set-up: method as in doi:10.1002/app.47192, PMID 29904629; conditions: cited from earlier work

Compound | cytotoxicity in the MTT test (in words) [1] | nuclei circularity index (HTB140 cells [2]) | IC50 [3] [mM] | IC50 ([5]; DU145, 24 h) [mM] | IC50 ([5]; DU145, 72 h) [mM] | IC50 ([5]; DU145, 120 h) [mM] | IC50 ([6]; HTB140, 24 h) [mM] | IC50 ([6]; HTB140, 72 h) [mM] | IC50 ([6]; HTB140, 120 h) [mM] | IC50 [7] [mM] | IC50 ([8]; PNT2, 24 h) [mM] | IC50 ([8]; PNT2, 72 h) [mM] | IC50 ([8]; PNT2, 120 h) [mM] | IC50 [9] [mM] | also measured
O=C[C@H](O)[C@@H](O)[C@@H](O)[C@H](O)CO [gal, β-d-galactopyranose, reference compound] | low cytotoxicity | smallest round nuclei | – | – | – | – | – | – | – | – | – | – | – | – | –
OC[C@H]1OC(O)[C@H](O)[C@@H](O)[C@@H]1O (stereo partly drawn) [glu, α-D-glucopiranose, reference compound] | low cytotoxicity | smallest round nuclei | – | – | – | – | – | – | – | – | – | – | – | – | –
galactose nonanoic ester [C9-gal] | – | – | 1.56 | 1.56 | 0.78 | 1.56 | 1.66 | 1.56 | 1.56 | 1.56 | 2.39 | 1.23 | 2.36 | 1.56 | IC50 [4]: 1.56 mM
lactose nonanoic ester [C9-lac] | – | highest circularity index | – | 0.92 | 0.84 | 0.46 | 0.62 | 0.92 | 0.81 | 0.92 | 1.71 | 0.92 | 1.74 | 0.92 | change of nuclei roundness (DU145 cells [10]): decrease in nucleus roundness index; change of nuclei shape (decrease in roundness index) (HTB140 cells [2]; HTB140, after the next 24 h (48 h)): biggest change; reduction of transmigration (DU145 cells [11]): 25%; decrease of transmigration (HTB140 cells [12]): 16%; IC50 ([5]; read-out: Cytotoxicity of SFAE determined by MTT assay (IC50), Supplementary Table 2, DU145, 72 h, standard deviation on line d below): 0.837 mM; IC50 ([5]; read-out: Cytotoxicity of SFAE determined by MTT assay (IC50), Supplementary Table 2, DU145, 120 h, standard deviation on line d below): 0.46 mM; IC50 ([6]; read-out: Cytotoxicity of SFAE determined by MTT assay (IC50), Supplementary Table 2, HTB 140, 24 h, standard deviation on line d below): 0.622 mM; IC50 ([6]; read-out: Cytotoxicity of SFAE determined by MTT assay (IC50), Supplementary Table 2, HTB 140, 120 h, standard deviation on line d below): 0.805 mM; IC50 ([8]; read-out: Cytotoxicity of SFAE determined by MTT assay (IC50), Supplementary Table 2, PNT2, 24 h, standard deviation on line d below): 1.71 mM; IC50 ([8]; read-out: Cytotoxicity of SFAE determined by MTT assay (IC50), Supplementary Table 2, PNT2, 120 h, standard deviation on line d below): 1.74 mM
mixture of (3R)-hydroxynonanoate glucose esters and (3R)-hydroxyheptanoate glucose esters [mPHN-glu] | – | – | 1.43 | – | – | – | – | – | – | – | – | – | – | – | –
octanoic acid glucose ester | – | – | – | – | – | – | – | – | – | – | – | – | – | – | IC50 [13]: 0.12 mM

Reference: publication PMC8268987, “In Search of Effective Anticancer Agents—Novel Sugar Esters Based on Polyhydroxyalkanoate Monomers” (International Journal of Molecular Sciences, 2021)
